# Results: US7183369B1, “Injectible bodily prosthetics employing methacrylic copolymer gels” (Iowa State University Research Foundation, Inc., priority 2003, dated 2007)
# System: NIH/3T3 mouse fibroblasts
# Test: Elution cytotoxicity test
# Format: cell-based
# Procedure: Elution tests were performed on one sample of the pentablock material to assess the cytotoxic properties of the pentablock copolymers. Approximately 30 mg of the polymers to be tested were dissolved in 100 ml of low-glucose Dulbecco's modified eagle medium (DMEM, Sigma) with 10% fetal bovine serum (FBS, Sigma), 10 μg/ml insulin (Sigma), 10 units/ml penicillin/streptomycin (Sigma), and 100 μg/ml L-ascorbic acid (Sigma). This solution was diluted to achieve the desired polymer concentration for all tests.
# NIH/3T3 mouse fibroblasts were grown in polystyrene flasks until reaching confluence at 150 cells/mm. The growth media was removed from the flasks and replaced with one of the following: DMEM (negative control), DMEM with phenol (positive control), DMEM with the pentablock material. The concentrations of the pentablock material and phenol were 3 mg/L, 0.3 mg/L and 0.03 mg/L.
# After 24 hours of incubation in a humidified incubator with 5% CO2 at 37° C. the samples were removed and the media was replaced with Karnovsky's fixative (2.5% glutaraldehyde, 2.0% paraformaldehyde, 0.1M sodium cacodylate) for 12 hours. The samples were then stained with a 20% crystal violet dye (CVD) solution in ethanol for 6 hours followed by dehydration with ethanol. […]
substance,measurement,value
PDEAEM-b-PEO-b-PPO-b-PEO-b-PDEAEM [pentablock copolymer],cell adhesion to polystyrene substrate and confluence after test period,good adhesion to the polystyrene cell culture substrate and the cells remained confluent
